Measurements: US20230085307A1, “PYRIDAZINONE COMPOUND AND HERBICIDE” (NISSAN CHEMICAL CORPORATION, priority 2019, published 2023)

How the values were obtained:
green foxtail [1] = assay: Test Example 4: herbicidal effect by soil treatment (Table 19, symbol G); format: in vivo, green foxtail (Setaria viridis)
In short: (§1)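 Herbicidal effect was rated 3 weeks after treatment, using the scoring criteria of an earlier test. The compound, formulated as an emulsion and diluted in water to a set herbicide amount, had been sprayed uniformly on soil over freshly sown seeds. Growth took place in a greenhouse at 25° C. to 30° C.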

barnyard grass [2] = assay: Test Example 5: herbicidal effect by foliage application, plastic box (Table 20, symbol H); format: in vivo, barnyard grass (Echinochloa crus-galli); settings: foliage application, 320 g/ha, evaluated three weeks after application
In short: (§2)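 Foliar spray test: emulsion formulation diluted in water to a set application rate, sprayed onto 14-day-old plants raised in diluvial soil at 25° C to 30° C under glass. Both herbicidal effect and crop effect rated visually three weeks later.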

lambsquarters [3] = assay: Test Example 5: herbicidal effect by foliage application, plastic box (Table 20, symbol O); format: in vivo, lambsquarters (Chenopodium album); settings: foliage application, 320 g/ha, evaluated three weeks after application
In short: as §2

windgrass [4] = assay: Test Example 5: herbicidal effect by foliage application, plastic box (Table 20, symbol L); format: in vivo, windgrass (Apera spica-venti); settings: foliage application, 320 g/ha, evaluated three weeks after application
In short: as §2

windgrass [5] = assay: Test Example 4: herbicidal effect by soil treatment (Table 19, symbol L); format: in vivo, windgrass (Apera spica-venti)
In short: as §1

chickweed [6] = assay: Test Example 4: herbicidal effect by soil treatment (Table 19, symbol P); format: in vivo, common chickweed (Stellaria media)
In short: as §1

blackgrass [7] = assay: Test Example 5: herbicidal effect by foliage application, plastic box (Table 20, symbol J); format: in vivo, blackgrass (Alopecurus myosuroides); settings: foliage application, 320 g/ha, evaluated three weeks after application
In short: as §2

Chinese sprangletop = assay: Test Example 3: herbicidal effect by foliage application, Wagner pot (Table 18, symbol D); format: in vivo, chinese sprangletop (Leptochloa chinensis)
In short: (§3)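 Plants were sown in alluvial soil held under 0.1–0.5 cm standing water and grown 14 days in a greenhouse at 25–30 °C. An emulsifiable formulation, water-diluted to the set dose, was then sprayed onto the foliage, and effects were scored three weeks later using previously defined criteria.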

wild oat [8] = assay: Test Example 5: herbicidal effect by foliage application, plastic box (Table 20, symbol I); format: in vivo, wild oat (Avena fatua); settings: foliage application, 320 g/ha, evaluated three weeks after application
In short: as §2

southern crabgrass [9] = assay: Test Example 5: herbicidal effect by foliage application, plastic box (Table 20, symbol F); format: in vivo, southern crabgrass (Digitaria ciliaris); settings: foliage application, 320 g/ha, evaluated three weeks after application
In short: as §2

redroot pigweed [10] = assay: Test Example 5: herbicidal effect by foliage application, plastic box (Table 20, symbol N); format: in vivo, redroot pigweed (Amaranthus retroflexus); settings: foliage application, 320 g/ha, evaluated three weeks after application
In short: as §2

persian speedwell [11] = assay: Test Example 4: herbicidal effect by soil treatment (Table 19, symbol R); format: in vivo, Persian speedwell (Veronica persica)
In short: as §1

barnyard grass [12] = assay: Test Example 4: herbicidal effect by soil treatment (Table 19, symbol H); format: in vivo, barnyard grass (Echinochloa crus-galli)
In short: as §1

blackgrass [13] = assay: Test Example 4: herbicidal effect by soil treatment (Table 19, symbol J); format: in vivo, blackgrass (Alopecurus myosuroides)
In short: as §1

Italian ryegrass [14] = assay: Test Example 5: herbicidal effect by foliage application, plastic box (Table 20, symbol K); format: in vivo, Italian ryegrass (Lolium multiflorum); settings: foliage application, 320 g/ha, evaluated three weeks after application
In short: as §2

Italian ryegrass [15] = assay: Test Example 4: herbicidal effect by soil treatment (Table 19, symbol K); format: in vivo, Italian ryegrass (Lolium multiflorum)
In short: as §1

redroot pigweed [16] = assay: Test Example 4: herbicidal effect by soil treatment (Table 19, symbol N); format: in vivo, redroot pigweed (Amaranthus retroflexus)
In short: as §1

false cleavers = assay: Test Example 4: herbicidal effect by soil treatment (Table 19, symbol Q); format: in vivo, false cleavers (Galium spurium)
In short: as §1

rice flat sedge = assay: Test Example 3: herbicidal effect by foliage application, Wagner pot (Table 18, symbol E); format: in vivo, rice flat sedge (Cyperus iria)
In short: as §3

southern crabgrass [17] = assay: Test Example 4: herbicidal effect by soil treatment (Table 19, symbol F); format: in vivo, southern crabgrass (Digitaria ciliaris)
In short: as §1

green foxtail [18] = assay: Test Example 5: herbicidal effect by foliage application, plastic box (Table 20, symbol G); format: in vivo, green foxtail (Setaria viridis); settings: foliage application, 320 g/ha, evaluated three weeks after application
In short: as §2

wild oat [19] = assay: Test Example 4: herbicidal effect by soil treatment (Table 19, symbol I); format: in vivo, wild oat (Avena fatua)
In short: as §1

persian speedwell [20] = assay: Test Example 5: herbicidal effect by foliage application, plastic box (Table 20, symbol R); format: in vivo, Persian speedwell (Veronica persica); settings: foliage application, 320 g/ha, evaluated three weeks after application
In short: as §2

lambsquarters [21] = assay: Test Example 4: herbicidal effect by soil treatment (Table 19, symbol O); format: in vivo, lambsquarters (Chenopodium album)
In short: as §1

barnyard grass [22] = assay: Test Example 3: herbicidal effect by foliage application, Wagner pot (Table 18, symbol H); format: in vivo, barnyard grass (Echinochloa crus-galli)
In short: as §3

velvetleaf [23] = assay: Test Example 5: herbicidal effect by foliage application, plastic box (Table 20, symbol M); format: in vivo, velvetleaf (Abutilon theophrasti); settings: foliage application, 320 g/ha, evaluated three weeks after application
In short: as §2

chickweed [24] = assay: Test Example 5: herbicidal effect by foliage application, plastic box (Table 20, symbol P); format: in vivo, common chickweed (Stellaria media); settings: foliage application, 320 g/ha, evaluated three weeks after application
In short: as §2

velvetleaf [25] = assay: Test Example 4: herbicidal effect by soil treatment (Table 19, symbol M); format: in vivo, velvetleaf (Abutilon theophrasti)
In short: as §1

[26] = amount of applied herbicide 320 g/ha

Cc1nn(C)c(=O)c(-c2c(-c3ccc(F)cc3)sc3ccc(Cl)cc23)c1O [2-097]
herbicidal effect rating, G: green foxtail (green foxtail [1]; 320 g/ha): 3 (Herbicidal rate of 40% or more and less than 70%) | herbicidal effect on H: barnyard grass (barnyard grass [2]): 5 (Herbicidal rate of 90% or more (almost completely withered)) | herbicidal effect on O: lambsquarters (lambsquarters [3]): 5 (Herbicidal rate of 90% or more (almost completely withered)) | herbicidal effect on L: windgrass (windgrass [4]): 5 (Herbicidal rate of 90% or more (almost completely withered)) | herbicidal effect rating, L: windgrass (windgrass [5]; 320 g/ha): 5 (Herbicidal rate of 90% or more (almost completely withered)) | herbicidal effect rating, P: chickweed (chickweed [6]; 320 g/ha): 5 (Herbicidal rate of 90% or more (almost completely withered)) | herbicidal effect on J: blackgrass (blackgrass [7]): 5 (Herbicidal rate of 90% or more (almost completely withered)) | herbicidal effect on D (Chinese sprangletop), rating 0-5 (Chinese sprangletop; 320 g/ha): 3 (Herbicidal rate of 40% or more and less than 70%) | herbicidal effect on I: wild oat (wild oat [8]): 5 (Herbicidal rate of 90% or more (almost completely withered)) | herbicidal effect on F: southern crabgrass (southern crabgrass [9]): 5 (Herbicidal rate of 90% or more (almost completely withered)) | herbicidal effect on N: redroot pigweed (redroot pigweed [10]): 5 (Herbicidal rate of 90% or more (almost completely withered)) | herbicidal effect rating, R: persian speedwell (persian speedwell [11]; 320 g/ha): 5 (Herbicidal rate of 90% or more (almost completely withered)) | herbicidal effect rating, H: barnyard grass (barnyard grass [12]; 320 g/ha): 3 (Herbicidal rate of 40% or more and less than 70%) | herbicidal effect rating, J: blackgrass (blackgrass [13]; 320 g/ha): 5 (Herbicidal rate of 90% or more (almost completely withered)) | herbicidal effect on K: Italian ryegrass (Italian ryegrass [14]): 5 (Herbicidal rate of 90% or more (almost completely withered)) | herbicidal effect rating, K: Italian ryegrass (Italian ryegrass [15]; 320 g/ha): 5 (Herbicidal rate of 90% or more (almost completely withered)) | herbicidal effect rating, N: redroot pigweed (redroot pigweed [16]; 320 g/ha): 5 (Herbicidal rate of 90% or more (almost completely withered)) | herbicidal effect rating, Q: false cleavers (false cleavers; 320 g/ha): 4 (Herbicidal rate of 70% or more and less than 90%) | herbicidal effect on E (rice flat sedge), rating 0-5 (rice flat sedge; 320 g/ha): 4 (Herbicidal rate of 70% or more and less than 90%) | herbicidal effect rating, F: southern crabgrass (southern crabgrass [17]; 320 g/ha): 2 (Herbicidal rate of 20% or more and less than 40%) | herbicidal effect on G: green foxtail (green foxtail [18]): 5 (Herbicidal rate of 90% or more (almost completely withered)) | herbicidal effect rating, I: wild oat (wild oat [19]; 320 g/ha): 1 (Herbicidal rate of 5% or more and less than 20%) | herbicidal effect on R: persian speedwell (persian speedwell [20]): 5 (Herbicidal rate of 90% or more (almost completely withered)) | herbicidal effect rating, O: lambsquarters (lambsquarters [21]; 320 g/ha): 5 (Herbicidal rate of 90% or more (almost completely withered)) | herbicidal effect on H (barnyard grass), rating 0-5 (barnyard grass [22]; 320 g/ha): 5 (Herbicidal rate of 90% or more (almost completely withered)) | herbicidal effect on M: velvetleaf (velvetleaf [23]): 5 (Herbicidal rate of 90% or more (almost completely withered)) | herbicidal effect on P: chickweed (chickweed [24]): 5 (Herbicidal rate of 90% or more (almost completely withered)) | herbicidal effect rating, M: velvetleaf (velvetleaf [25]; 320 g/ha): 3 (Herbicidal rate of 40% or more and less than 70%)

CCCC(=O)Oc1c(C)nn(C)c(=O)c1-c1c(-c2ccc3c(c2)OCO3)sc2ccc(C)cc12 [2-157]
G: green foxtail, herbicidal effect rating (green foxtail [1]; [26]): 0 (Herbicidal rate of 5% or less (almost no effect)) | herbicidal effect on H: barnyard grass (criteria 0-5) (barnyard grass [2]): 0 (Herbicidal rate of 5% or less (almost no effect)) | herbicidal effect on O: lambsquarters (criteria 0-5) (lambsquarters [3]): 0 (Herbicidal rate of 5% or less (almost no effect)) | herbicidal effect on L: windgrass (criteria 0-5) (windgrass [4]): 0 (Herbicidal rate of 5% or less (almost no effect)) | L: windgrass, herbicidal effect rating (windgrass [5]; [26]): 0 (Herbicidal rate of 5% or less (almost no effect)) | P: chickweed, herbicidal effect rating (chickweed [6]; [26]): 4 (Herbicidal rate of 70% or more and less than 90%) | herbicidal effect on J: blackgrass (criteria 0-5) (blackgrass [7]): 0 (Herbicidal rate of 5% or less (almost no effect)) | herbicidal effect on D: Chinese sprangletop (Chinese sprangletop; [26]): 0 (Herbicidal rate of 5% or less (almost no effect)) | herbicidal effect on I: wild oat (criteria 0-5) (wild oat [8]): 0 (Herbicidal rate of 5% or less (almost no effect)) | herbicidal effect on F: southern crabgrass (criteria 0-5) (southern crabgrass [9]): 0 (Herbicidal rate of 5% or less (almost no effect)) | herbicidal effect on N: redroot pigweed (criteria 0-5) (redroot pigweed [10]): 3 (Herbicidal rate of 40% or more and less than 70%) | R: persian speedwell, herbicidal effect rating (persian speedwell [11]; [26]): 3 (Herbicidal rate of 40% or more and less than 70%) | H: barnyard grass, herbicidal effect rating (barnyard grass [12]; [26]): 0 (Herbicidal rate of 5% or less (almost no effect)) | J: blackgrass, herbicidal effect rating (blackgrass [13]; [26]): 0 (Herbicidal rate of 5% or less (almost no effect)) | herbicidal effect on K: Italian ryegrass (criteria 0-5) (Italian ryegrass [14]): 0 (Herbicidal rate of 5% or less (almost no effect)) | K: Italian ryegrass, herbicidal effect rating (Italian ryegrass [15]; [26]): 0 (Herbicidal rate of 5% or less (almost no effect)) | N: redroot pigweed, herbicidal effect rating (redroot pigweed [16]; [26]): 0 (Herbicidal rate of 5% or less (almost no effect)) | Q: false cleavers, herbicidal effect rating (false cleavers; [26]): 0 (Herbicidal rate of 5% or less (almost no effect)) | herbicidal effect on E: rice flat sedge (rice flat sedge; [26]): 0 (Herbicidal rate of 5% or less (almost no effect)) | F: southern crabgrass, herbicidal effect rating (southern crabgrass [17]; [26]): 0 (Herbicidal rate of 5% or less (almost no effect)) | herbicidal effect on G: green foxtail (criteria 0-5) (green foxtail [18]): 0 (Herbicidal rate of 5% or less (almost no effect)) | I: wild oat, herbicidal effect rating (wild oat [19]; [26]): 0 (Herbicidal rate of 5% or less (almost no effect)) | herbicidal effect on R: persian speedwell (criteria 0-5) (persian speedwell [20]): 4 (Herbicidal rate of 70% or more and less than 90%) | O: lambsquarters, herbicidal effect rating (lambsquarters [21]; [26]): 0 (Herbicidal rate of 5% or less (almost no effect)) | herbicidal effect on H: barnyard grass (barnyard grass [22]; [26]): 3 (Herbicidal rate of 40% or more and less than 70%) | herbicidal effect on M: velvetleaf (criteria 0-5) (velvetleaf [23]): 0 (Herbicidal rate of 5% or less (almost no effect)) | herbicidal effect on P: chickweed (criteria 0-5) (chickweed [24]): 0 (Herbicidal rate of 5% or less (almost no effect)) | M: velvetleaf, herbicidal effect rating (velvetleaf [25]; [26]): 0 (Herbicidal rate of 5% or less (almost no effect))
